# Reference: US20240115667A1 (priority 2020, published 2024)
# Like-named read-outs stand apart in the source and are kept apart here.
# Key:
# SARS-CoV-2 [1] = assay type: cell-based
# SARS-CoV-2 [2] = assay type: cell-based; details: diphenhydramine 40 μg/ml, lactoferrin 400 μg/ml; MOI 0.01; 48 h supernatant
# SARS-CoV-2 [3] = tested on: SARS-CoV-2
# SARS-CoV-2 [4] = details: for EC50, inhibition of SARS-CoV-2 induced cytotoxicity: Vero E6, MOI 0.2, LDH release
# SARS-CoV-2 [5] = test: microbe, parasite or virus in culture; details: Severe acute respiratory syndrome coronavirus 2, Vero C1008, read-out: EC50, inhibition of SARS-CoV-2 induced cytotoxicity, diphenhydramine with 400 μg/ml of lactoferrin
smiles,measurement,setting,value
CN(C)CCOC(c1ccccc1)c1ccccc1 [Diphenhydramine],Reduction in N-protein RNA,SARS-CoV-2 [1],32.2%
same,Reduction of infectious SARS-CoV-2 particle release compared to untreated H23-hACE2 cells,SARS-CoV-2 [2],−1 log
same,Inhibition of SARS-CoV-2 infection in vitro,SARS-CoV-2 [3],inhibited SARS-CoV-2 infection when administered alone
same,Reduction of the diphenhydramine EC50 by presence of LFN,SARS-CoV-2 [3],3 times
same,Decrease of SARS-CoV-2 induced cytotoxicity,SARS-CoV-2 [3]; 5 μg/mL DPH alone,unable to decrease SARS-CoV-2 induced cytotoxicity
same,Decrease of diphenhydramine EC50,SARS-CoV-2 [4]; co-administration of 400 μg/ml of lactoferrin,55.5%
same,"EC50, inhibition of SARS-CoV-2 induced cytotoxicity",SARS-CoV-2 [4]; diphenhydramine alone,122 µg/mL
same,"EC50, inhibition of SARS-CoV-2 induced cytotoxicity",SARS-CoV-2 [4]; diphenhydramine with 400 μg/ml of lactoferrin,54.25 µg/mL
same,EC50,"SARS-CoV-2 [5]; Vero E6, MOI 0.2",186 µM
same,EC50,"SARS-CoV-2 [5]; Vero E6, MOI 0.2, LDH release",54.2 µg/mL
